In the test the target is T1, SugR (Corynebacterium glutamicum, UniProt Q8NP85).
T1 construct: gene Cgl1931; expressed in E. coli ER2566 from pTYB1 (pLGI1, 777 bp sugR without stop codon) as C-terminal intein fusion, tag self-cleaved, no extra residues
T1 sequence (Q8NP85 1-259): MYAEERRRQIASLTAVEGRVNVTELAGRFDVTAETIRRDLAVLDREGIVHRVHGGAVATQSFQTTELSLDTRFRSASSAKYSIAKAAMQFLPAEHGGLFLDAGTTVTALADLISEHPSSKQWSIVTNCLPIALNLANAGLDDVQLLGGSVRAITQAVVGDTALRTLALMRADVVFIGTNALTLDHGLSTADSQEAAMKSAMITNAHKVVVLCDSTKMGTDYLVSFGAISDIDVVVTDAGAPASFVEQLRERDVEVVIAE
Put plainly: EMSA, release of SugR from Cy3-labelled DNA fragment I2. Type of test: binding. Conditions: negative effector; 15 pmol SugR, 0.05 pmol DNA I2 (ptsI-cg2118 intergenic region), 1 mM MgCl2, pH 7.5, RT; threshold of effect, not an IC50. (In general: A gel shift assay detects complexes by their altered migration in electrophoresis.)

Take `O=P(O)(O)OC[C@H]1OC(O)[C@H](O)[C@@H](O)[C@@H]1O` (stereo partly shown) [G-6-P, glucose-6-phosphate]: the “concentration needed for significant effect” value is more than 10 mM.

The values are drawn from publication PMC2222622, “The DeoR-type transcriptional regulator SugR acts as a repressor for genes encoding the phosphoenolpyruvate:sugar phosphotransferase system (PTS) in Corynebacterium glutamicum” (BMC Molecular Biology, 2007).
